Legend:
[1] = tested on: control sera (pooled serum of ten healthy LUMC hospital workers; commercial negative donor pooled serum from the Dutch bloodbank); assay type: binding, human; design: Binding of Control serum LUMC to linear peptides / Binding of Control serum Blood-bank to linear peptides / Binding of Control serum LUMC to looped peptides / Binding of Control Serum Blood-Bank to Looped peptides / Binding of Control serum LUMC to linear peptides of the protein M of SARS-CoV Urbani / Binding of Control serum Blood-bank to linear peptides of the protein M of SARS-CoV Urbani / Binding of Control serum LUMC to looped peptides of the protein M of SARS-CoV Urbani / Binding of Control Serum Blood-Bank to Looped peptides of the protein M of SARS-CoV Urbani: unit not given here
[2] = tested on: antibodies in sera from SARS patients (sera 1a, 1b, 2, 6, 37, 62, London, SARS-yellow, SARS-green); assay type: binding, human; design: Binding of serum 6 to linear peptides of protein X1 of SARS-CoV Urbani / Binding of serum 37 to linear peptides of protein X1 of SARS-CoV Urbani / Binding of serum 6 to looped/cyclic peptide (PEPSCAN-ELISA) / Binding of serum 37 to looped/cyclic peptide (PEPSCAN-ELISA) / Binding of serum 37 to looped/cyclic peptides of protein X1 of SARS-CoV Urbani / Binding of serum 6 to linear peptides of protein X2 / Binding of serum 37 to linear peptides of protein X2 / Binding of serum 37 to looped/cyclic peptides of protein X2 of SARS-CoV Urbani / Binding of serum 6 to linear peptides of protein M of SARS-CoV Urbani / Binding of serum 37 to linear peptides of protein M of SARS-CoV Urbani / Binding of serum 6 to looped/cyclic peptides of protein M of SARS-CoV Urbani / Binding of serum 37 to looped/cyclic peptides of protein M of SARS-CoV Urbani / Binding of serum 6 to linear peptides of protein X3 of SARS-CoV Urbani / Binding of serum 37 to linear peptides of protein X3 of SARS-CoV Urbani / Binding of serum 37 to looped/cyclic peptides of protein X3 of SARS-CoV Urbani / Binding of serum 6 to linear peptides of protein X4 of SARS-CoV Urbani / Binding of serum 37 to linear peptides of protein X4 of SARS-CoV Urbani / Binding of serum 37 to looped/cyclic peptides of protein X4 of SARS-CoV Urbani / Binding of serum 6 to linear peptides of protein X5 of SARS-CoV Urbani / Binding of serum 37 to linear peptides of protein X5 of SARS-CoV Urbani / Binding of serum 37 to looped/cyclic peptides of protein X5 of SARS-CoV Urbani / Binding of serum 6 to linear peptides of protein N of SARS-CoV Urbani / Binding of serum 37 to linear peptides of protein N of SARS-CoV Urbani / Binding of serum 6 to linear peptide (PEPSCAN-ELISA) / Binding of serum 1a to looped/cyclic peptides of protein N of SARS-CoV Urbani / Binding of serum 1b to looped/cyclic peptides of protein N of SARS-CoV Urbani / Binding of serum 2 to looped/cyclic peptides of protein N of SARS-CoV Urbani / Binding of serum 6 to looped/cyclic peptides of protein N of SARS-CoV Urbani / Binding of serum 37 to looped/cyclic peptides of protein N of SARS-CoV Urbani / Binding of serum 62 to looped/cyclic peptides of protein N of SARS-CoV Urbani / Binding of serum London to looped/cyclic peptides of protein N of SARS-CoV Urbani / Binding of serum SARS-green to looped/cyclic peptides of protein N of SARS-CoV Urbani: unit not given here
[3] = tested on: rabbit serum obtained by immunizing a rabbit with the SARS-CoV strain Frankfurt 1; assay type: binding; design: Binding of a rabbit serum to linear peptides / Binding of a rabbit serum to looped peptides / Rabbit serum linear peptides / Rabbit serum looped peptides / Binding of a rabbit serum to linear peptides of protein N of SARS-CoV Urbani (Rabbit serum linear peptides) / Binding of a rabbit serum to looped/cyclic peptides of protein N of SARS-CoV Urbani (Rabbit serum looped peptides): unit not given here

Sequence | Binding of Control Serum Blood-Bank to Looped peptides of the protein M of SARS-CoV Urbani [1] | Binding of Control serum Blood-bank to linear peptides of the protein M of SARS-CoV Urbani [1] | Binding of Control serum LUMC to linear peptides of the protein M of SARS-CoV Urbani [1] | Binding of Control serum LUMC to looped peptides of the protein M of SARS-CoV Urbani [1] | Binding of serum 1a to linear peptides of protein M of SARS-CoV Urbani [2] | Binding of serum 1a to looped/cyclic peptides of protein M of SARS-CoV Urbani [2] | Binding of serum 1b to linear peptides of protein M of SARS-CoV Urbani [2] | Binding of serum 1b to looped/cyclic peptides of protein M of SARS-CoV Urbani [2] | Binding of serum 2 to linear peptides of protein M of SARS-CoV Urbani [2] | Binding of serum 2 to looped/cyclic peptides of protein M of SARS-CoV Urbani [2] | Binding of serum 6 to linear peptides of protein M of SARS-CoV Urbani [2] | Binding of serum 6 to looped/cyclic peptides of protein M of SARS-CoV Urbani [2] | Binding of serum 37 to linear peptides of protein M of SARS-CoV Urbani [2] | Binding of serum 37 to looped/cyclic peptides of protein M of SARS-CoV Urbani [2] | Binding of serum 62 to linear peptides of protein M of SARS-CoV Urbani [2] | Binding of serum 62 to looped/cyclic peptides of protein M of SARS-CoV Urbani [2] | Binding of serum London to linear peptides of protein M of SARS-CoV Urbani [2] | Binding of serum London to looped/cyclic peptides of protein M of SARS-CoV Urbani [2] | Binding of serum SARS-green to linear peptides of protein M of SARS-CoV Urbani [2] | Binding of serum SARS-green to looped/cyclic peptides of protein M of SARS-CoV Urbani [2] | further results
RYRIGNYKLNTDHAG | 0.7 | 0.7 | 0.5 | 0.7 | 0.7 | 0.7 | 0.5 | 0.6 | 0.4 | 0.6 | 0.2 | 0.9 | 0.6 | 0.6 | 0.5 | 0.6 | 0.5 | 0.4 | 0.4 | 0.3 | Binding of serum SARS-yellow to linear peptides of protein M of SARS-CoV Urbani [2]: 0.2; Binding of serum SARS-yellow to looped/cyclic peptides of protein M of SARS-CoV Urbani [2]: 0.8; Rabbit serum linear peptides [3]: 0.1; Rabbit serum looped peptides [3]: 0.2
TRSMWSFNPETNILL | 0.9 | 0.7 | 0.8 | 0.9 | 0.8 | 1.0 | 0.7 | 0.4 | 0.5 | 0.8 | 0.5 | 0.9 | 0.5 | 1.1 | 0.4 | 1.1 | 0.3 | 0.3 | 0.5 | 0.5 | Binding of serum SARS-yellow to linear peptides of protein M of SARS-CoV Urbani [2]: 0.3; Binding of serum SARS-yellow to looped/cyclic peptides of protein M of SARS-CoV Urbani [2]: 0.7; Rabbit serum linear peptides [3]: 0.1; Rabbit serum looped peptides [3]: 0.3

Source: US20070128217A1 (priority 2003, published 2007)
